In patent US10385103B2, “Cell-permeable (ICP)-SOCS3 recombinant protein and uses thereof” (CELLIVERY THERAPEUTICS, INC., priority 2014, dated 2019):

Test system: RAW 264.7 cells
Test: Quantitative cell-permeability of FITC-labeled aMTD- or rPeptide-fused CRA recombinant proteins (flow cytometry)
Assay type: cell-based
Conditions: for Relative Ratio to aMTD AVE: cell-permeability of rPeptide-fused CRA recombinant protein relative to average of 240 aMTDs
Description: The aMTDs and rPeptides were fluorescently labeled and compared based on the critical factors for cell-permeability by using flow cytometry and confocal laser scanning microscopy (FIGS. 5 to 8). The cellular uptake of the peptide-fused non-functional cargo recombinant proteins could quantitatively be evaluated in flow cytometry, while confocal laser scanning microscopy allows intracellular uptake to be assessed visually. The analysis included recombinant proteins fused to a negative control [rP38] that has opposite characteristics (hydrophilic and aromatic sequence: […] NO: 952)) to the aMTDs (hydrophobic and aliphatic sequences). Relative cell-permeability (relative fold) of aMTDs to the negative control was also analyzed (Table 23 and FIG. 9). […] RAW 264.7 cells were treated with 10 μM FITC-labeled recombinant proteins for 1 hour at 37° C., washed three times with cold PBS, treated with 0.25% tripsin/EDTA (Sigma-Aldrich, St. Louis, Mo.) for 20 minutes at 37° C. to remove cell-surface bound proteins. Cell-permeability of these recombinant proteins were analyzed by flow cytometry (Guava, Millipore, Darmstadt, Germany) using the FlowJo cytometric analysis software (FIGS. 5 to 6).

[1] = cell-permeability of aMTD-fused CRA recombinant protein relative to negative control (A: rP38)
[2] = cell-permeability of aMTD-fused CRA recombinant protein relative to reference CPP (B: MTM12)
[3] = cell-permeability of aMTD-fused CRA recombinant protein relative to reference CPP (C: MTD85)
[4] = cell-permeability relative to negative control rP38 (A type), aMTD-fused CRA recombinant protein, 10 μM FITC-labeled, 1 hour, 37° C., RAW 264.7 cells
[5] = cell-permeability relative to reference CPP MTD85 (C type), aMTD-fused CRA recombinant protein, 10 μM FITC-labeled, 1 hour, 37° C., RAW 264.7 cells
[6] = cell-permeability relative to reference CPP MTM12 (B type), aMTD-fused CRA recombinant protein, 10 μM FITC-labeled, 1 hour, 37° C., RAW 264.7 cells
[7] = 10 μM FITC-labeled, 1 hour, 37° C., RAW 264.7 cells
[8] = relative cell-permeability of rPeptide vs reference A (not defined)
[9] = relative cell-permeability of rPeptide vs reference CPP B: MTM12
[10] = relative cell-permeability of rPeptide vs reference CPP C: MTD85

Substance | Relative Ratio (Fold) A [4] [Fold] | Relative Ratio (Fold) C [5] [Fold] | Relative Ratio (Fold) B [6] [Fold] | Relative Ratio to aMTD AVE [7] | also measured
1 (AAALAPVVLALP; Amino acid Sequence of aMTD1) [compound 1] |  |  |  |  | Relative Ratio (Fold) A [1]: 17.7 Fold; Relative Ratio (Fold) B [2]: 11.8 Fold; Relative Ratio (Fold) C [3]: 6.0 Fold
2 (AAAVPLLAVVVP; Amino acid Sequence of aMTD2) [compound 2] |  |  |  |  | Relative Ratio (Fold) A [1]: 40.9 Fold; Relative Ratio (Fold) B [2]: 27.2 Fold; Relative Ratio (Fold) C [3]: 13.8 Fold; Relative Ratio (Fold) A (relative cell-permeability of aMTD vs reference A (not defined)): 40.9 Fold; Relative Ratio (Fold) B (relative cell-permeability of aMTD vs reference CPP B: MTM12): 27.2 Fold; Relative Ratio (Fold) C (relative cell-permeability of aMTD vs reference CPP C: MTD85): 13.8 Fold
3 (AALLVPAAVLAP; Amino acid Sequence of aMTD3) [compound 3] |  |  |  |  | Relative Ratio (Fold) A [1]: 27.0 Fold; Relative Ratio (Fold) B [2]: 18.0 Fold; Relative Ratio (Fold) C [3]: 9.1 Fold
4 (ALALLPVAALAP; Amino acid Sequence of aMTD4) [compound 4] | 2.0 | 0.7 | 1.3 |  | 
5 (AAALLPVALVAP; Amino acid Sequence of aMTD5) [compound 5] | 3.1 | 1.0 | 2.1 |  | 
11 (VVALAPALAALP; Amino acid Sequence of aMTD11) [compound 11] |  |  |  |  | Relative Ratio (Fold) A [1]: 9.5 Fold; Relative Ratio (Fold) B [2]: 6.3 Fold; Relative Ratio (Fold) C [3]: 3.2 Fold
12 (LLAAVPAVLLAP; Amino acid Sequence of aMTD12) [compound 12] | 2.2 | 0.7 | 1.5 |  | 
13 (AAALVPVVALLP; Amino acid Sequence of aMTD13) [compound 13] | 7.0 | 2.4 | 4.7 |  | 
16 (NNSCTTYTNGSQ; Amino acid Sequence of rPeptide ID 16) [compound 16] |  |  |  | 0.08 | Relative Ratio (Fold) A [8]: 1.6 Fold; Relative Ratio (Fold) B [9]: 1.1 Fold; Relative Ratio (Fold) C [10]: 0.5 Fold
17 (GGCSAPQTTCSN; Amino acid Sequence of rPeptide ID 17) [compound 17] |  |  |  | 0.08 | 
18 (NYCCTPTTNGQS; Amino acid Sequence of rPeptide ID 18) [compound 18] |  |  |  | 0.10 | 
21 (AVALLPALLAVP; Amino acid Sequence of aMTD21) [compound 21] |  |  |  |  | Relative Ratio (Fold) A [1]: 18.9 Fold; Relative Ratio (Fold) B [2]: 12.6 Fold; Relative Ratio (Fold) C [3]: 6.4 Fold
24 (IALAAPALIVAP; Amino acid Sequence of aMTD24) [compound 24] | 2.3 | 0.8 | 1.6 |  | 
25 (IVAVAPALVALP; Amino acid Sequence of aMTD25) [compound 25] | 2.4 | 0.8 | 1.6 |  | 
26 (AAIALAAPLAIV; Amino acid Sequence of rPeptide ID 26) [compound 26] |  |  |  | 0.65 | 
29 (VLPPLPVLPVLP; Amino acid Sequence of rPeptide ID 29) [compound 29] |  |  |  | 0.07 | Relative Ratio (Fold) A [8]: 1.4 Fold; Relative Ratio (Fold) B [9]: 0.9 Fold; Relative Ratio (Fold) C [10]: 0.5 Fold
38 (YYNQSTCGGQCY; Amino acid Sequence of rPeptide ID 38) [compound 38] |  |  |  | 0.05 | 
39 (CYNTSPCTGCCY; Amino acid Sequence of rPeptide ID 39) [compound 39] |  |  |  | 0.29 | 
43 (LLAAPLVVAAVP; Amino acid Sequence of aMTD43) [compound 43] | 2.1 | 0.7 | 1.4 |  | 
61 (VAALPVLLAALP; Amino acid Sequence of aMTD61) [compound 61] |  |  |  |  | Relative Ratio (Fold) A [1]: 31.2 Fold; Relative Ratio (Fold) B [2]: 20.8 Fold; Relative Ratio (Fold) C [3]: 10.5 Fold
62 (VALLAPVALAVP; Amino acid Sequence of aMTD62) [compound 62] | 1.4 | 0.5 | 0.9 |  | 
64 (AIVALPVAVLAP; Amino acid Sequence of aMTD64) [compound 64] |  |  |  |  | Relative Ratio (Fold) A [1]: 15.8 Fold; Relative Ratio (Fold) B [2]: 10.6 Fold; Relative Ratio (Fold) C [3]: 5.3 Fold

Substance | Relative Ratio (Fold) A [4] [Fold] | Relative Ratio (Fold) C [5] [Fold] | Relative Ratio (Fold) B [6] [Fold] | Relative Ratio to aMTD AVE [7] | also measured
65 (IAIVAPVVALAP; Amino acid Sequence of aMTD65) [compound 65] | 3.0 | 1.0 | 2.0 |  | 
66 (AGVLGGPIMGVP; Amino acid Sequence of rPeptide ID 66) [compound 66] |  |  |  | 0.13 | 
67 (LDAEVPLADDVP; Amino acid Sequence of rPeptide ID 67) [compound 67] |  |  |  | 0.08 | Relative Ratio (Fold) A [8]: 1.5 Fold; Relative Ratio (Fold) B [9]: 0.9 Fold; Relative Ratio (Fold) C [10]: 0.5 Fold
68 (VAPVLPAAPLVP; Amino acid Sequence of rPeptide ID 68) [compound 68] |  |  |  | 0.32 | 
82 (AVVLAPVAAVLP; Amino acid Sequence of aMTD82) [compound 82] | 2.1 | 0.7 | 1.4 |  | 
83 (LAVAAPLALALP; Amino acid Sequence of aMTD83) [compound 83] | 1.4 | 0.5 | 0.9 |  | 
84 (AAVAAPLLLALP; Amino acid Sequence of aMTD84) [compound 84] | 1.5 | 0.5 | 1.0 |  | 
85 (LLVLPAAALAAP; Amino acid Sequence of aMTD85) [compound 85] | 1.9 | 0.7 | 1.3 |  | 
97 (ALLAAPPALLAL; Amino acid Sequence of rPeptide ID 97) [compound 97] |  |  |  | 0.41 | 
105 (LLALAPAALLAP; Amino acid Sequence of aMTD105) [compound 105] | 4.0 | 1.3 | 2.6 |  | 
113 (PVAVALLIAVPP; Amino acid Sequence of rPeptide ID 113) [compound 113] |  |  |  | 0.61 | 
121 (AIVALPALALAP; Amino acid Sequence of aMTD121) [compound 121] | 2.5 | 0.8 | 1.7 |  | 
124 (IAVALPALIAAP; Amino acid Sequence of aMTD124) [compound 124] |  |  |  |  | Relative Ratio (Fold) A [1]: 43.6 Fold; Relative Ratio (Fold) B [2]: 29.0 Fold; Relative Ratio (Fold) C [3]: 14.7 Fold
139 (TGSTNSPTCTST; Amino acid Sequence of rPeptide ID 139) [compound 139] |  |  |  | 0.17 | 
141 (AVIVLPALAVAP; Amino acid Sequence of aMTD141) [compound 141] |  |  |  |  | Relative Ratio (Fold) A [1]: 9.4 Fold; Relative Ratio (Fold) B [2]: 6.3 Fold; Relative Ratio (Fold) C [3]: 3.2 Fold
143 (AVLAVPAVLVAP; Amino acid Sequence of aMTD143) [compound 143] | 3.3 | 1.1 | 2.2 |  | 
145 (LLAVVPAVALAP; Amino acid Sequence of aMTD145) [compound 145] |  |  |  |  | Relative Ratio (Fold) A [1]: 9.5 Fold; Relative Ratio (Fold) B [2]: 6.3 Fold; Relative Ratio (Fold) C [3]: 3.2 Fold
161 (AVIALPALIAAP; Amino acid Sequence of aMTD161) [compound 161] |  |  |  |  | Relative Ratio (Fold) A [1]: 34.5 Fold; Relative Ratio (Fold) B [2]: 23.0 Fold; Relative Ratio (Fold) C [3]: 11.6 Fold
167 (VAIAIPAALAIP; Amino acid Sequence of rPeptide ID 167) [compound 167] |  |  |  | 0.50 | 
182 (ALIAPVVALVAP; Amino acid Sequence of aMTD182) [compound 182] | 4.0 | 1.4 | 2.7 |  | 
183 (LLAAPVVIALAP; Amino acid Sequence of aMTD183) [compound 183] | 6.0 | 2.0 | 4.0 |  | 
